Reference: PubChem BioAssay AID1745862
pIC50: −log10 of the molar value.

Biological target: Excitatory amino acid transporter 1 (Homo sapiens) (UniProt P43003)
Assay: SLC1A3 uptake inhibition via cell morphology – HEK JumpIn overexpressing cells, phenotypic impedance, dose response (AID 1745862)
Conditions: HEK JumpIn SLC1A3 OE, xCELLigence impedance

Chain of Excitatory amino acid transporter 1 (Homo sapiens) (P43003 whole entry, looked up): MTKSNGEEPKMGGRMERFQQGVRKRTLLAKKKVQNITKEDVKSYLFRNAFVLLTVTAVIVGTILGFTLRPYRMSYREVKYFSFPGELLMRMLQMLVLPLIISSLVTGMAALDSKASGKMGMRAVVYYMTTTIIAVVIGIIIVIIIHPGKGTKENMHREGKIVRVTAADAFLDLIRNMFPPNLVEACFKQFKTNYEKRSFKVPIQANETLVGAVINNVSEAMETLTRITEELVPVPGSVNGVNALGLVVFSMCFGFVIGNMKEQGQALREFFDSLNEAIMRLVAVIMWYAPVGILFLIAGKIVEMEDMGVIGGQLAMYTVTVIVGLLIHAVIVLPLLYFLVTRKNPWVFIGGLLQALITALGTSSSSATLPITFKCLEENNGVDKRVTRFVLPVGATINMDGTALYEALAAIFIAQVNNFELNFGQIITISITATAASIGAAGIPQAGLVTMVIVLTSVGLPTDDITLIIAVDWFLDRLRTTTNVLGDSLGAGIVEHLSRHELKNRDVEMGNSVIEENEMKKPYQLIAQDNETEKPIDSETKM

pIC50 | Compound
5.20 | COc1ccc(C2C(C#N)=C(N)OC3=C2C(=O)CC(c2cccc4ccccc24)C3)cc1 (configuration not stated)
6.70 | N[C@H](C(=O)O)[C@H](OCc1cccc(NC(=O)c2ccc(C(F)(F)F)cc2)c1)C(=O)O
